Format in all cases: biochemical
The target of experiment [1] is immunoproteasome LMP2 subunit (Homo sapiens, UniProt P28065). The experiment in a line: Caliper-based proteasome enzymatic activity assay, LMP2. Conditions: human recombinant immunoproteasome 0.3 nM, FAM peptide substrate 1 μM, rt 2 h.
Experiment [2] concerns the target constitutive proteasome β5c subunit (Homo sapiens, UniProt P28074). As to the kind of experiment: Caliper-based proteasome enzymatic activity assay, β5c. The following applies: human recombinant constitutive proteasome 0.3 nM, FAM peptide substrate 1 μM, rt 3 h.
Experiment [3] concerns the target immunoproteasome LMP7/B5i subunit (Homo sapiens, UniProt P28062). As to the kind of experiment: Caliper-based proteasome enzymatic activity assay, LMP7. Conditions: human recombinant immunoproteasome 0.3 nM, FAM peptide substrate 1 μM, rt 3 h.

What is called IC50 is the concentration that inhibits the measured activity by half. For `N#CC(=Cc1ccc(Cl)c(OCCC(=O)N[C@@H](Cc2ccccc2)B(O)O)c1Cl)c1ccccn1` [Example 39, (R)-(1-(3-(2,6-dichloro-3-(2-cyano-2-(pyridin-2-yl)vinyl)phenoxy)propanamido)-2-phenylethyl)boronic Acid], the IC50 worked out at 0.325 µM in experiment [1], 0.136 µM in experiment [2] and 0.014 µM in experiment [3].

As for `N#CC(=Cc1cccc(OCCC(=O)N[C@@H](Cc2ccccc2)B(O)O)c1F)c1ccccn1` [Example 40, (R)-(1-(3-(3-(2-cyano-2-(pyridin-2-yl)vinyl)-2-fluorophenoxy)propanamido)-2-phenylethyl)boronic Acid], the IC50 in experiment [1] was 0.0739 µM; in experiment [2] it was 0.07 µM; in experiment [3], 0.0085 µM.

As to `CN(C)C(=O)C(C#N)=Cc1cc(F)cc(OCCC(=O)N[C@@H](Cc2ccccc2)B(O)O)c1` [Example 41, (R)-(1-(3-(3-(2-cyano-3-(dimethylamino)-3-oxoprop-1-en-1-yl)-5-fluorophenoxy)propanamido)-2-phenylethyl)boronic Acid], the figures for the IC50 in experiment [1], in experiment [2] and in experiment [3] were 0.32 µM, 0.176 µM and 0.0041 µM, respectively.

In the case of `CN(C)C(=O)C(C#N)=Cc1cc(OCCC(=O)N[C@@H](Cc2ccccc2)B(O)O)ccc1F` [Example 42, (R)-(1-(3-(3-(2-cyano-3-(dimethylamino)-3-oxoprop-1-en-1-yl)-4-fluorophenoxy)propanamido)-2-phenylethyl)boronic Acid], the IC50 in experiment [1] was found to be 0.393 µM; in experiment [2], 0.192 µM; in experiment [3] it was 0.006 µM.

As for `N#CC(=Cc1cc(OCCC(=O)N[C@@H](Cc2ccccc2)B(O)O)ccc1F)c1ccccn1` [Example 43, (R)-(1-(3-(3-(2-cyano-2-(pyridin-2-yl)vinyl)-4-fluorophenoxy)propanamido)-2-phenylethyl)boronic Acid], the results for the IC50 in experiment [1], in experiment [2] and in experiment [3] were 0.122 µM, 0.0394 µM and 0.0029 µM, respectively.

Regarding `Cc1ccc(C[C@H](NC(=O)CCOc2cccc(C=C(C#N)C(=O)N(C)C)c2)B(O)O)c(C)c1` [Example 44, (R)-(1-(3-(3-(2-cyano-3-(dimethylamino)-3-oxoprop-1-en-1-yl)phenoxy)propanamido)-2-(2,4-dimethylphenyl)ethyl)boronic Acid], the figures for the IC50 in experiment [1], in experiment [2] and in experiment [3] were 3.13 µM, 0.388 µM and 0.0021 µM, respectively.

Regarding `Cc1ccc(C[C@H](NC(=O)CCOc2cccc(C=C(C#N)c3ccccn3)c2)B(O)O)c(C)c1` [Example 45, (R)-1-(3-(3-(2-cyano-2-(pyridin-2-yl)vinyl)phenoxy)propanamido)-2-(2,4-dimethylphenyl)ethylboronic Acid], the results for the IC50 in experiment [1], in experiment [2] and in experiment [3] were 1.25 µM, 0.0927 µM and 0.0043 µM, respectively.

Take `COCCNC(=O)C(C#N)=Cc1cccc(OCCC(=O)N[C@@H](Cc2ccccc2)B(O)O)c1` [Example 46, (R)-(1-(3-(3-(2-cyano-3-((2-methoxyethyl)amino)-3-oxoprop-1-en-1-yl)phenoxy)propanamido)-2-phenylethyl)boronic Acid]: the IC50 in experiment [1] was 0.37 µM; in experiment [2] it was 0.141 µM; in experiment [3], 0.0046 µM.

In the case of `COCC(C)(C)NC(=O)C(C#N)=Cc1cccc(OCCC(=O)N[C@@H](Cc2ccccc2)B(O)O)c1` [Example 47, (R)-(1-(3-(3-(2-cyano-3-((1-methoxy-2-methylpropan-2-yl)amino)-3-oxoprop-1-en-1-yl)phenoxy)propanamido)-2-phenylethyl)boronic Acid], the IC50 in experiment [1] came out at 0.438 µM; in experiment [2], 0.0722 µM; in experiment [3] it was 0.0053 µM.

With `COC(C)(C)CNC(=O)C(C#N)=Cc1cccc(OCCC(=O)N[C@@H](Cc2ccccc2)B(O)O)c1` [Example 48, (R)-(1-(3-(3-(2-cyano-3-((2-methoxy-2-methylpropyl)amino)-3-oxoprop-1-en-1-yl)phenoxy)propanamido)-2-phenylethyl)boronic Acid], the figures for the IC50 in experiment [1], in experiment [2] and in experiment [3] were 0.415 µM, 0.0904 µM and 0.0051 µM, respectively.

As to `CN(C)C(=O)C(C#N)=Cc1cccc(COCC(=O)N[C@@H](Cc2ccccc2)B(O)O)c1` [Example 49, (R)-(1-(2-((3-(2-cyano-3-(dimethylamino)-3-oxoprop-1-en-1-yl)benzyl)oxy)acetamido)-2-phenylethyl)boronic Acid], the IC50 in experiment [1] was found to be 2.9 µM; in experiment [2], 1.13 µM; in experiment [3], 0.0049 µM.

Turning to `COc1cccnc1C(C#N)=Cc1cccc(OCCC(=O)N[C@@H](Cc2ccccc2)B(O)O)c1` [Example 51, (R)-(1-(3-(3-(2-cyano-2-(3-methoxypyridin-2-yl)vinyl)phenoxy)propanamido)-2-phenylethyl)boronic Acid], the IC50 was found to be 0.306 µM in experiment [1], 0.122 µM in experiment [2] and 0.0202 µM in experiment [3].

Regarding `CN(C)C(=O)C(C#N)=Cc1cccc(CCOC(=O)N[C@@H](Cc2coc3ccccc23)B(O)O)c1` [Example 53, (R)-(2-(benzofuran-3-yl)-1-(((3-(2-cyano-3-(dimethylamino)-3-oxoprop-1-en-1-yl)phenethoxy)carbonyl)amino)ethyl)boronic Acid], the IC50 was over 5 µM in experiment [1], 0.212 µM in experiment [2] and 0.001 µM in experiment [3].

Consider `N#CC(=Cc1cccc(CCOC(=O)N[C@@H](Cc2ccccc2)B(O)O)c1)c1ccc(C(F)(F)F)cn1` [Example 56, (R)-(1-(((3-(2-cyano-2-(5-(trifluoromethyl)pyridin-2-yl)vinyl)phenethoxy)carbonyl)amino)-2-phenylethyl)boronic Acid], for which the IC50 in experiment [1] was 1.77 µM; in experiment [2] it was 0.439 µM; in experiment [3], 0.0038 µM.

For the compound `Cc1ccc(C[C@H](NC(=O)OCCc2cccc(C=C(C#N)c3ccccn3)c2)B(O)O)cc1` [Example 57, (R)-(1-(((3-(2-cyano-2-(pyridin-2-yl)vinyl)phenethoxy)carbonyl)amino)-2-(p-tolyl)ethyl)boronic Acid], the IC50 in experiment [1] is over 5 µM; in experiment [2], 0.188 µM; in experiment [3] it was 0.0018 µM.

Regarding `N#CC(=Cc1cccc(CCOC(=O)N[C@@H](Cc2ccccc2)B(O)O)c1)c1ccncn1` [Example 59, (R)-(1-(((3-(2-cyano-2-(pyrimidin-4-yl)vinyl)phenethoxy)carbonyl)amino)-2-phenylethyl)boronic Acid], the IC50 was 0.544 µM in experiment [1], 0.354 µM in experiment [2] and 0.0009 µM in experiment [3].

Take `CCN(CC)C(=O)C(C#N)=Cc1cccc(CCNC(=O)N[C@@H](Cc2ccccc2)B(O)O)c1` [Example 61, (R)-(1-(3-(3-(2-cyano-3-(diethylamino)-3-oxoprop-1-en-1-yl)phenethyl)ureido)-2-phenylethyl)boronic Acid]: the IC50 was over 5 µM in experiment [1], over 5 µM in experiment [2] and 0.0432 µM in experiment [3].

As to `N#CC(=Cc1cccc(CCNC(=O)N[C@@H](Cc2ccccc2)B(O)O)c1)c1ccccn1` [Example 62, (R)-(1-(3-(3-(2-cyano-2-(pyridin-2-yl)vinyl)phenethyl)ureido)-2-phenylethyl)boronic Acid], the IC50 in experiment [1] was over 5 µM; in experiment [2] it was over 5 µM; in experiment [3], 0.186 µM.

Consider `N#CC(=Cc1cccc(CCOC(=O)N[C@@H](Cc2ccccc2)B(O)O)c1)c1cnccn1` [Example 63, (R)-(1-(((3-(2-cyano-2-(pyrazin-2-yl)vinyl)phenethoxy)carbonyl)amino)-2-phenylethyl)boronic Acid], for which the IC50 stood at 1.51 µM in experiment [1], 0.556 µM in experiment [2] and 0.0014 µM in experiment [3].

The record behind these values is patent US12024531B2, “Immunoproteasome inhibitors” (Principia Biopharma Inc., priority 2017, dated 2024).
